From US20250382273A1 (INSTITUT NATIONAL DE LA SANTE ET DE LA RECHERCHE MEDICALE, priority 2022, published 2025)
Where two headings read alike, the source gives them in different places.

Test system: M. tuberculosis H37Rv_DdnL49P_gfp
Assay type: cell-based, Mycobacterium tuberculosis
[1] = in combination with pretomanid, unit inferred, read-out: average EC50 H37Rv_DdnL49P_gfp
[2] = read-out: EC50 H37Rv_DdnL49P_gfp

SMILES	EC50 [1] [µM]	EC50 [2] [µM]
CC(C)(C)C#Cc1ccc2nc(NC(=O)[C@@H]3C4C=CC(C4)[C@@H]3C(=O)O)sc2c1 (some centres unmarked) [Example 78, 3-[[6-(3,3-dimethylbut-1-ynyl)-1,3-benzothiazol-2-yl]carbamoyl]bicyclo [2.2.1]hept-5-ene-2-carboxylic acid]	0.22	< 1
Cc1ccc2nc(NC(=O)[C@@H]3C4CCC(C4)[C@@H]3C(=O)O)sc2c1 (stereo in doubt) [Example 3, 3-[(6-methyl-1,3-benzothiazol-2-yl)carbamoyl]norbornane-2-carboxylic acid]	–	1 to 5
O=C(Nc1nc2ccc(Nc3cc(F)ccn3)cc2s1)[C@@H]1C2C=CC(C2)[C@@H]1C(=O)O (some centres unmarked) [Example 85, 3-[[6-[(4-fluoro-2-pyridyl)amino]-1,3-benzothiazol-2-yl]carbamoyl]bicyclo[2.2.1]hept-5-ene-2-carboxylic acid]	–	< 1
Cc1ccnc(Nc2ccc3nc(NC(=O)[C@@H]4C5C=CC(C5)[C@@H]4C(=O)O)sc3c2)c1 (some centres unmarked) [Example 84, 3-[[6-[(4-methyl-2-pyridyl)amino]-1,3-benzothiazol-2-yl]carbamoyl]bicyclo[2.2.1]hept-5-ene-2-carboxylic acid]	–	1 to 5
O=C1[C@@H]2C3C=CC(C3)[C@@H]2C(=O)N1c1nc2ccc(Nc3cccc(F)n3)cc2s1 [Example 89, 4-[6-[(6-fluoro-2-pyridyl)amino]-1,3-benzothiazol-2-yl]-4-azatricyclo[5.2.1.02,6]dec-8-ene-3,5-dione]	–	1 to 5
O=C(Nc1nc2ccc(-c3cccc(C(F)(F)F)c3)cc2s1)[C@@H]1C2C=CC(C2)[C@@H]1C(=O)O (some centres unmarked) [Example 59, 3-[[6-[3-(trifluoromethyl)phenyl]-1,3-benzothiazol-2-yl]carbamoyl]bicyclo[2.2.1]hept-5-ene-2-carboxylic acid]	–	1 to 5
O=C(Nc1nc2ccc(C3CCCCC3)cc2s1)[C@@H]1C2C=CC(C2)[C@@H]1C(=O)O (some centres unmarked) [Example 52, 3-[(6-cyclohexyl-1,3-benzothiazol-2-yl)carbamoyl]bicyclo[2.2.1]hept-5-ene-2-carboxylic acid]	–	1 to 5
O=C(Nc1nc2cc3c(cc2s1)OCCO3)[C@@H]1C2C=CC(C2)[C@@H]1C(=O)O (some centres unmarked) [Example 10, 3-(6,7-dihydro-[1,4]dioxino[2,3-f][1,3]benzothiazol-2-ylcarbamoyl) bicyclo[2.2.1]hept-5-ene-2-carboxylic acid]	–	10 to 20
CCOc1ccc2nc(NC(=O)[C@@H]3C4C=CC(C4)[C@@H]3C(=O)O)sc2c1 (some centres unmarked) [Example 7, 3-[(6-ethoxy-1,3-benzothiazol-2-yl)carbamoyl]bicyclo[2.2.1]hept-5-ene-2-carboxylic acid]	1	< 1
Cc1ccc(-c2ccc3nc(NC(=O)[C@@H]4C5C=CC(C5)[C@@H]4C(=O)O)sc3c2)cc1 (some centres unmarked) [Example 53, 3-[[6-(p-tolyl)-1,3-benzothiazol-2-yl]carbamoyl]bicyclo[2.2.1]hept-5-ene-2-carboxylic acid]	–	< 1
O=C1[C@@H]2[C@H](C(=O)N1c1nc3ccc(Oc4ccc(C(F)(F)F)cn4)cc3s1)[C@@H]1C=C[C@H]2C1 [Example 36, (1R,2S,6R,7S)-4-[6-[[5-(trifluoromethyl)-2-pyridyl]oxy]-1,3-benzothiazol-2-yl]-4-azatricyclo[5.2.1.02,6]dec-8-ene-3,5-dione]	0.49	< 1
O=C1[C@@H]2[C@H](C(=O)N1c1nc3ccc(OC(F)(F)F)cc3s1)[C@@H]1C=C[C@H]2C1 [Example 45, (1R,2S,6R,7S)-4-[6-(trifluoromethoxy)-1,3-benzothiazol-2-yl]-4-azatricyclo[5.2.1.02,6]dec-8-ene-3,5-dione]	–	5 to 10
O=C(Nc1nc2ccc(-c3ccc(N4CCCCC4)cc3)cc2s1)[C@@H]1C2C=CC(C2)[C@@H]1C(=O)O (some centres unmarked) [Example 100]	–	< 1
O=C(Nc1nc2ccc(Nc3ccnc(F)c3)cc2s1)[C@@H]1C2C=CC(C2)[C@@H]1C(=O)O (some centres unmarked) [Example 99, 3-[[6-[(2-fluoro-4-pyridyl)amino]-1,3-benzothiazol-2-yl]carbamoyl]bicyclo[2.2.1]hept-5-ene-2-carboxylic acid]	–	1 to 5
O=C(Nc1nc2ccc(C#CC3CC3)cc2s1)[C@@H]1C2C=CC(C2)[C@@H]1C(=O)O (some centres unmarked) [Example 79, 3-[[6-(2-cyclopropylethynyl)-1,3-benzothiazol-2-yl]carbamoyl]bicyclo[2.2.1]hept-5-ene-2-carboxylic acid]	–	< 1
O=C(Nc1nc2ccc(I)cc2s1)[C@@H]1C2C=CC(C2)[C@@H]1C(=O)O (some centres unmarked) [Example 49, 3-[(6-iodo-1,3-benzothiazol-2-yl)carbamoyl]bicyclo[2.2.1]hept-5-ene-2-carboxylic acid]	–	1 to 5
O=C(Nc1nc2ccc(Oc3cc(C(F)(F)F)ccn3)cc2s1)[C@@H]1C2C=CC(C2)[C@@H]1C(=O)O (some centres unmarked) [Example 27, 3-[[6-[[4-(trifluoromethyl)-2-pyridyl]oxy]-1,3-benzothiazol-2-yl]carbamoyl]bicyclo[2.2.1]hept-5-ene-2-carboxylic acid]	0.23	< 1
O=C(Nc1nc2ccc(Oc3ccncc3)cc2s1)[C@@H]1C2C=CC(C2)[C@@H]1C(=O)O (some centres unmarked) [Example 24, 3-[[6-(4-pyridyloxy)-1,3-benzothiazol-2-yl]carbamoyl]bicyclo[2.2.1]hept-5-ene-2-carboxylic acid]	–	5 to 10
Cc1ccc2nc(NC(=O)[C@@H]3C4C=CC(C4)[C@@H]3C(=O)O)sc2c1 (mixture of isomers) [Example 1, 3-[(6-methyl-1,3-benzothiazol-2-yl)carbamoyl]bicyclo[2.2.1]hept-5-ene-2-carboxylic acid]	–	5 to 10
O=C(Nc1nc2ccc(-c3ccc(Cl)cc3)cc2s1)[C@@H]1C2C=CC(C2)[C@@H]1C(=O)O (some centres unmarked) [Example 55, 3-[[6-(4-chlorophenyl)-1,3-benzothiazol-2-yl]carbamoyl]bicyclo[2.2.1]hept-5-ene-2-carboxylic acid]	–	< 1
O=C1C2C3C=CC(C3)C2C(=O)N1c1nc2ccc(-c3ccccc3C(F)(F)F)cc2s1 [Example 58, (1R,2S,6R,7S)-4-[6-[[2-(trifluoromethyl)phenyl]-1,3-benzothiazol-2-yl]-4-azatricyclo [5.2.1.02,6]dec-8-ene-3,5-dione]	–	10 to 20
Cc1ccc2nc(N3C(=O)[C@@H]4[C@H](C3=O)[C@@H]3C=C[C@H]4C3)sc2c1 [Example 2, (1R,2S,6R,7S)-4-(6-methyl-1,3-benzothiazol-2-yl)-4-azatricyclo[5.2.1.02,6]dec-8-ene-3,5-dione]	–	5 to 10
CCc1ccc2nc(NC(=O)[C@@H]3C4C=CC(C4)[C@@H]3C(=O)O)sc2c1 (some centres unmarked) [Example 11, 3-[(6-ethyl-1,3-benzothiazol-2-yl)carbamoyl]bicyclo[2.2.1]hept-5-ene-2-carboxylic acid]	–	1 to 5
O=C(Nc1nc2ccc(Nc3cncc(C(F)(F)F)c3)cc2s1)[C@@H]1C2C=CC(C2)[C@@H]1C(=O)O (some centres unmarked) [Example 91, 3-[[6-[[5-(trifluoromethyl)-3-pyridyl]amino]-1,3-benzothiazol-2-yl]carbamoyl]bicyclo[2.2.1]hept-5-ene-2-carboxylic acid]	–	5 to 10
O=C(Nc1nc2ccc(-c3cncnc3)cc2s1)[C@@H]1C2C=CC(C2)[C@@H]1C(=O)O (some centres unmarked) [Example 80, 3-[(6-pyrimidin-5-yl-1,3-benzothiazol-2-yl)carbamoyl]bicyclo[2.2.1]hept-5-ene-2-carboxylic acid]	–	10 to 20
